Laboratory results published in patent US20260258085A1, “NOVEL DECAPEPTIDE AND USE THEREOF IN ANTIBACTERIAL” (METHYCURE BIOTECH CORP., priority 2023, published 2026).
Positions of bridges follow the written chain, without caps; N, C: chain ends. Non-standard residues stand in square brackets, D forms with d. Residues, ends and D or L forms follow the SMILES beside them. *: point of attachment. X1 = CC[C@H](C)CCCCC(=O)*; dDab = NCC[C@@H](N)C(=O)O; Dab = NCC[C@H](N)C(=O)O

Tests used:
E. coli = test: Minimum inhibitory concentration test against common Gram-negative bacteria; format: cell-based, Escherichia coli; details: clinical isolate, 37° C., 16 hours, visual reading
Experimental: (§1) The pathogenic bacteria used for testing were all sourced from the intensive care unit of Gulou Hospital, isolated and cultured from clinical samples of patients with severe pneumonia. The strain species were identified by the Microbiology Laboratory of Gulou Hospital. The Gram-negative bacteria here include Escherichia coli, Pseudomonas aeruginosa, Acinetobacter baumannii, Klebsiella pneumoniae, etc.
(§2) A single colony of the test bacteria was inoculated into 5 ml of medium and cultured overnight to saturation. 10 μL of bacterial culture was aspirated and added to 990 μL of fresh medium, mixed well, to obtain a 100-fold diluted bacterial suspension. Then, 20 μL of the 100-fold diluted bacterial suspension was aspirated and added to 980 μL of fresh medium, mixed well. The bacteria obtained at this point were diluted 5000-fold.
(§3) The antimicrobial peptide was dissolved in Dimethyl sulfoxide (DMSO) to obtain a stock solution with a concentration of 12.8 mg/mL. Using DMSO, a two-fold serial dilution was performed for 10 consecutive times.
Add the 11 gradients of antimicrobial peptide diluted in step 1.1.2 to a 96-well plate, respectively, with the last well containing the same volume of DMSO. Then, add 48 μL of fresh medium to each well. Subsequently, add the 5000-fold diluted bacteria from step 1.1.1 to each well. Mix well. Incubate at 37° C. for 16 hours. […]

Acinetobacter baumannii = test: as above; format: cell-based; details: clinical isolate, 37° C., 16 hours, visual reading
Experimental: as §1, §2, §3
(§4) Add the 11 gradients of antimicrobial peptide diluted in step 1.1.2 to a 96-well plate, respectively, with the last well containing the same volume of DMSO. Then, add 48 μL of fresh medium to each well. Subsequently, add the 5000-fold diluted bacteria from step 1.1.1 to each well. Mix well. Incubate at 37° C. for 16 hours. Visually determine the concentration at which bacterial growth begins to be inhibited; this is the minimum inhibitory concentration (MIC).

Klebsiella pneumoniae = test: as above; format: cell-based; details: clinical isolate, 37° C., 16 hours, visual reading
Experimental: as §1, §2, §3, §4

Pseudomonas aeruginosa = test: as above; format: cell-based; details: clinical isolate, 37° C., 16 hours, visual reading
Experimental: as §1, §2, §3, §4

[1] = test system: A. baumannii containing the MCR-1 plasmid; format: cell-based, Acinetobacter baumannii; details: for Minimum Inhibitory Concentration, A. baumannii 1: strain 1, MCR-1 plasmid; for Minimum Inhibitory Concentration, A. baumannii 2: strain 2, MCR-1 plasmid
Experimental: (§5) The polymyxin-resistant pathogenic bacteria used for testing were all sourced from the hospital intensive care unit, isolated and cultured from clinical samples of patients with severe pneumonia. The strain species were identified by the hospital microbiology laboratory, and the presence of the mcr-1 gene in the strains was confirmed by high-throughput sequencing.
(§6) The culture procedure fully referenced Example 1.
(§7) Each bacterial species in the table was tested using 2 strains, denoted as “1” and “2” respectively.

[2] = test system: P. aeruginosa containing the MCR-1 plasmid; format: cell-based, Pseudomonas aeruginosa; details: for Minimum Inhibitory Concentration, P. aeruginosa 1: strain 1, MCR-1 plasmid; for Minimum Inhibitory Concentration, P. aeruginosa 2: strain 2, MCR-1 plasmid
Experimental: as §5, §6, §7

[3] = test system: E. coli containing the MCR-1 plasmid; format: cell-based, Escherichia coli; details: for Minimum Inhibitory Concentration, E. coli 1: strain 1, MCR-1 plasmid; for Minimum Inhibitory Concentration, E. coli 2: strain 2, MCR-1 plasmid
Experimental: as §5, §6, §7

[4] = test system: K. pneumoniae containing the MCR-1 plasmid; format: cell-based, Klebsiella pneumoniae; details: for Minimum Inhibitory Concentration, K. pneumoniae 1: strain 1, MCR-1 plasmid; for Minimum Inhibitory Concentration, K. pneumoniae 2: strain 2, MCR-1 plasmid
Experimental: as §5, §6, §7

[5] = test system: polymyxin-resistant Acinetobacter baumannii; test: Efficacy in neutropenic mice with thigh infection; format: in vivo; details: neutropenic CD1 mice, 20 mg/kg subcutaneous at 2, 8, 14, 24 hours post-infection, endpoint 24 hours
Excerpt: All mice used in this part passed the ethical review of animal research at Nanjing University. To avoid the influence of the mouse's innate immune system on the intrinsic activity of the antimicrobial peptide, we constructed a neutropenic mouse model. This experiment used 6-week-old CD1 female mice (20-25 g). Mice were randomly housed in individually ventilated cages and maintained according to the standards of the Association for Assessment and Accreditation of Laboratory Animal Care International. The room was set to a 12-hour light cycle, temperature of 21° C., and humidity of 30%. […]
At 2, 8, 14, and 24 hours post-infection, mice were subcutaneously injected with 100 μL of vehicle (0.9% saline), Polymyxin E (Colistin) (20 mg/kg), or the antimicrobial peptide (20 mg/kg). […] All mice were closely monitored post-infection for signs of illness. Any abnormal clinical symptoms were recorded. […] Thigh muscles were processed aseptically, weighed, homogenized, and plated for CFU counts on MH agar containing 50 μg/mL gentamicin to quantify the bacterial burden. Efficacy was determined by the reduction in bacterial burden in the thighs compared to the […] control group. All graphical data were statistically analyzed using GraphPad Prism software (Prism v.9). Differences in burden between test and control groups were assessed using one-way analysis. […]

## CC[C@H](C)CCCCC(=O)N[C@@H](CCN)C(=O)N[C@H](C(=O)N[C@H](CCN)C(=O)N[C@H]1CCNC(=O)[C@H](CC(C)C)NC(=O)[C@H](CCN)NC(=O)[C@H](CCN)NC(=O)[C@H]([C@@H](C)CC)NC(=O)[C@@H](CC(C)C)NC(=O)[C@H](CCN)NC1=O)[C@@H](C)O [Antimicrobial Peptide, {6-ME-Octanoic acid}-{Dab}-{Thr}-{D-Dab}-{Dab}-{Dab}-{D-Leu}-{Ile}-{Dab}-{Dab}-{Leu}] (X1-[Dab]T[dDab][Dab][Dab][dL]I[Dab][Dab]L; lactam 4-C)
E. coli
  Minimum Inhibitory Concentration (MIC): 4 µg/mL
Acinetobacter baumannii
  Minimum Inhibitory Concentration (MIC): 16 µg/mL
Klebsiella pneumoniae
  Minimum Inhibitory Concentration (MIC): 8 µg/mL
Pseudomonas aeruginosa
  Minimum Inhibitory Concentration (MIC): 4 µg/mL
[1]
  Minimum Inhibitory Concentration, A. baumannii 1: 4 µg/mL
  Minimum Inhibitory Concentration, A. baumannii 2: 2 µg/mL
[2]
  Minimum Inhibitory Concentration, P. aeruginosa 1: 2 µg/mL
  Minimum Inhibitory Concentration, P. aeruginosa 2: 1 µg/mL
[3]
  Minimum Inhibitory Concentration, E. coli 1: 2 µg/mL
  Minimum Inhibitory Concentration, E. coli 2: 2 µg/mL
[4]
  Minimum Inhibitory Concentration, K. pneumoniae 1: 1 µg/mL
  Minimum Inhibitory Concentration, K. pneumoniae 2: 2 µg/mL
[5]
  bacterial burden in thighs (CFU): significant reduction in colony-forming units (CFU)

## CC[C@H](C)CCCCC(=O)N[C@@H](CCN)C(=O)N[C@H](C(=O)N[C@@H](CCN)C(=O)N[C@H]1CCNC(=O)[C@H]([C@@H](C)O)NC(=O)[C@H](CCN)NC(=O)[C@H](CCN)NC(=O)[C@H](CC(C)C)NC(=O)[C@@H](CC(C)C)NC(=O)[C@H](CCN)NC1=O)[C@@H](C)O [Colistin, reference compound] (X1-[Dab]T[Dab][Dab][Dab][dL]L[Dab][Dab]T; lactam 4-C)
[1]
  Minimum Inhibitory Concentration, A. baumannii 1: 128 µg/mL
  Minimum Inhibitory Concentration, A. baumannii 2: 128 µg/mL
[2]
  Minimum Inhibitory Concentration, P. aeruginosa 1: 64 µg/mL
  Minimum Inhibitory Concentration, P. aeruginosa 2: 128 µg/mL
[3]
  Minimum Inhibitory Concentration, E. coli 1: 128 µg/mL
  Minimum Inhibitory Concentration, E. coli 2: 256 µg/mL
[4]
  Minimum Inhibitory Concentration, K. pneumoniae 1: 64 µg/mL
  Minimum Inhibitory Concentration, K. pneumoniae 2: 128 µg/mL
[5]
  bacterial burden in thighs (CFU): did not reduce the count of Acinetobacter baumannii
